Series [1] has as its system Mycobacterium tuberculosis. The experiment in a line: microbe, parasite or virus in culture. As to conditions: 331/88, 504 h.
Description: Antimycobacterial activity against Mycobacterium tuberculosis 331/88 after 21 days by micromethod
Series [2] can be described thus: Partition coefficient, log P of the compound. The format is physicochemical. As to conditions: octanol/water.
The nature of series [3]: Stability in 100 mM phosphate buffer at pH 7.4 assessed as compound degradation by HPLC. The format is physicochemical.
The nature of series [4]: Toxicity against human HCT8 cells after 72 hrs by XTT assay. It is filed as cell-based, HCT-8. (In general: Tetrazolium dyes change colour on reduction, which living cells bring about.)
Series [5] has as its system Mycobacterium kansasii. Kind of series: Antimycobacterial activity against Mycobacterium kansasii 6509/96 after 14 days by micromethod. The format is functional. As to conditions: 6509/96, 336 h.
Series [6] can be described thus: Stability in 100 mM phosphate buffer at pH 4 assessed as compound degradation by HPLC. The format is physicochemical.
The test system of series [7] is Mycobacterium kansasii. The experiment in a line: Antimycobacterial activity against Mycobacterium kansasii 235/80 after 21 days by micromethod. The format is functional. As to conditions: 235/80, 504 h.
Series [8] concerns Mycobacterium avium. The experiment in a line: Antimycobacterial activity against Mycobacterium avium 330/88 after 14 days by micromethod. It is filed as functional. The conditions noted are these: 330/88, 336 h.
Series [9] is described as follows: Stability in 100 mM phosphate buffer at pH 8 assessed as compound degradation by HPLC. It is filed as physicochemical.
The subject of series [10] is Mycobacterium tuberculosis. Kind of series: microbe, parasite or virus in culture. As to conditions: 331/88, 336 h.
Description: Antimycobacterial activity against Mycobacterium tuberculosis 331/88 after 14 days by micromethod
In series [11] the test system is Mycobacterium kansasii. Kind of series: Antimycobacterial activity against Mycobacterium kansasii 235/80 after 14 days by micromethod. As to conditions: 235/80, 336 h. The format is functional.
The test system of series [12] is Mycobacterium kansasii. Kind of series: Antimycobacterial activity against Mycobacterium kansasii 6509/96 after 21 days by micromethod. The format is functional. The conditions noted are these: 6509/96, 504 h.
A short description of series [13]: Stability in 100 mM phosphate buffer at pH 6 assessed as compound degradation by HPLC. It is filed as physicochemical.
Series [14] concerns Mycobacterium avium. The experiment in a line: Antimycobacterial activity against Mycobacterium avium 330/88 after 21 days by micromethod. It is filed as functional. As to conditions: 330/88, 504 h.
Series [15] can be described thus: Stability in 100 mM phosphate buffer at pH 7 assessed as compound degradation by HPLC. It is filed as physicochemical.
Series [16] is described as follows: Stability in 100 mM phosphate buffer at pH 3 assessed as compound degradation by HPLC. The format is physicochemical.
The nature of series [17]: Stability in 100 mM phosphate buffer at pH 5 assessed as compound degradation by HPLC. The format is physicochemical.

SMILES strings stand for the structures. ≈ marks a conversion by molar mass, not a printed value.

Turning to `CCCCCCNC(=O)Oc1ccc(Cl)cc1C(=O)Nc1ccc(Cl)c(Cl)c1`, the MIC worked out at 0.5 µM (≈ 0.222 µg/mL) in [1]; 1 µM (≈ 0.444 µg/mL) against Mycobacterium kansasii [5]; 2 µM (≈ 0.888 µg/mL) with Mycobacterium kansasii [7]; 4 µM (≈ 1.78 µg/mL) in the series with Mycobacterium avium [8]; 0.5 µM (≈ 0.222 µg/mL) in series [10]; 2 µM (≈ 0.888 µg/mL) in the series on Mycobacterium kansasii [11]. Besides, the MIC against Mycobacterium kansasii [12] is 2 µM (≈ 0.888 µg/mL); in the series on Mycobacterium avium [14], 8 µM (≈ 3.55 µg/mL). Besides, the logP in series [2] is 6.08. Besides, the half-life is 43 h in [3], 5 h in [9], 118 h in series [13] and 64 h in [15]. Also, the concentration for a half-maximal effect (EC50) at 72 h in [4] is 27.9 µM. The Stability result in series [6], in series [16] and in series [17] was “Stable” each time.
Take `CCCCCNC(=O)Oc1ccc(Cl)cc1C(=O)Nc1ccc(Cl)c(Cl)c1`: the MIC in series [1] came to 0.5 µM (≈ 0.215 µg/mL); with Mycobacterium kansasii [5], 2 µM (≈ 0.859 µg/mL); in the series on Mycobacterium kansasii [7], 2 µM (≈ 0.859 µg/mL); in the series with Mycobacterium avium [8], 8 µM (≈ 3.44 µg/mL); in series [10], 0.5 µM (≈ 0.215 µg/mL); against Mycobacterium kansasii [11] it was 2 µM (≈ 0.859 µg/mL). The values for the MIC against Mycobacterium kansasii [12] and against Mycobacterium avium [14] were 4 µM (≈ 1.72 µg/mL) and 16 µM (≈ 6.88 µg/mL), respectively. Moreover, the logP in series [2] is 5.67. Also, in [4], the EC50 at 72 h was determined as 40 µM.
`CCCCCNC(=O)Oc1ccc(Cl)cc1C(=O)Nc1ccc(Cl)cc1`: the MIC came out at 0.5 µM (≈ 0.198 µg/mL) in [1]; 4 µM (≈ 1.58 µg/mL) in the series on Mycobacterium kansasii [5]; 4 µM (≈ 1.58 µg/mL) against Mycobacterium kansasii [7]; 8 µM (≈ 3.16 µg/mL) against Mycobacterium avium [8]; 0.5 µM (≈ 0.198 µg/mL) in series [10]; 2 µM (≈ 0.791 µg/mL) with Mycobacterium kansasii [11]. For the same compound, the MIC against Mycobacterium kansasii [12] worked out at 4 µM (≈ 1.58 µg/mL); with Mycobacterium avium [14], 8 µM (≈ 3.16 µg/mL). Also, the logP in series [2] turned out to be 5.11. In addition, a half-maximal effect in [4] (EC50 at 72 h) was put at 17.4 µM.
On to `CCCCCCCNC(=O)Oc1ccc(Cl)cc1C(=O)Nc1ccc(Cl)c(Cl)c1`, for which the MIC in series [1] was 1 µM (≈ 0.458 µg/mL); in the series on Mycobacterium kansasii [5], 2 µM (≈ 0.916 µg/mL); against Mycobacterium kansasii [7] it was 2 µM (≈ 0.916 µg/mL); against Mycobacterium avium [8] it was 4 µM (≈ 1.83 µg/mL); in [10], 0.5 µM (≈ 0.229 µg/mL); in the series on Mycobacterium kansasii [11], 2 µM (≈ 0.916 µg/mL). In addition, the figures for the MIC against Mycobacterium kansasii [12] and against Mycobacterium avium [14] were 4 µM (≈ 1.83 µg/mL) and 8 µM (≈ 3.66 µg/mL), respectively. This compound returned a lipophilicity (logP) in series [2] of 6.5. In addition, the EC50 at 72 h in [4] was 43.4 µM.
As for `CCCCCCCCNC(=O)Oc1ccc(Cl)cc1C(=O)Nc1ccc(Cl)c(Cl)c1`, the MIC in series [1] was found to be 1 µM (≈ 0.472 µg/mL); against Mycobacterium kansasii [5], 2 µM (≈ 0.944 µg/mL); with Mycobacterium kansasii [7], 4 µM (≈ 1.89 µg/mL); against Mycobacterium avium [8], 4 µM (≈ 1.89 µg/mL); in series [10] it was 0.5 µM (≈ 0.236 µg/mL); in the series on Mycobacterium kansasii [11] it was 2 µM (≈ 0.944 µg/mL). Moreover, the MIC against Mycobacterium kansasii [12] stood at 4 µM (≈ 1.89 µg/mL); against Mycobacterium avium [14], 8 µM (≈ 3.77 µg/mL). In series [2], the log partition coefficient (logP) was 6.92. The same compound came in with a concentration for a half-maximal effect (EC50) at 72 h in series [4] of 48.5 µM.

As a reminder, the logP is a log measure of how a compound divides between an organic and an aqueous phase. The term half-life denotes how long it takes for the measured level to halve. The term EC50 denotes the midpoint of the concentration-response curve. Low readings indicate an effect from little substance, high ones a need for much substance.

These data come from ChEMBL document CHEMBL1159126, “Salicylanilide carbamates: antitubercular agents active against multidrug-resistant Mycobacterium tuberculosis strains” (Bioorg Med Chem, 2010).
